# Reference: doi:10.1101/2021.12.18.473277v2 (biorxiv, 2022)
# What was measured:
# HDAC1 = HDAC1 (Homo sapiens, UniProt Q13547); assay: continuous fluorogenic AMC assay, progression curves, kobs fit; type: biochemical
# [1] = biological target: HDAC3 (with DAD of NCoR2) (Homo sapiens, UniProt O15379); assay: fluorogenic activity assay with added InsP6; type: biochemical; settings: activator; stabilises the HDAC3/NCoR2 DAD complex
# HDAC3 (with DAD of NCoR2), sequence (O15379 whole entry): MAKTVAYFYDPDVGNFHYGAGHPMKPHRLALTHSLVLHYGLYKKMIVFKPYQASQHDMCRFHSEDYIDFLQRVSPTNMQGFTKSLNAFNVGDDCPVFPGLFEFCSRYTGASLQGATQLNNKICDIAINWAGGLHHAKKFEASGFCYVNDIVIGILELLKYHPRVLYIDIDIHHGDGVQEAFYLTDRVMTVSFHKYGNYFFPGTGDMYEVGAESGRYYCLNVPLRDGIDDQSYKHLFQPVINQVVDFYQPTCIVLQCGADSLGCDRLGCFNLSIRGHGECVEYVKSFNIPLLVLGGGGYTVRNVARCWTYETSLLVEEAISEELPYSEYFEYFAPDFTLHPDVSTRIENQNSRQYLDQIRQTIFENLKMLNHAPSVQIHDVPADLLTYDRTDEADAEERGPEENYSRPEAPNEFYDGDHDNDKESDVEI
# HDAC3 (with DAD of NCoR2), sequence (Q9Y618 395-489 partner limits assumed): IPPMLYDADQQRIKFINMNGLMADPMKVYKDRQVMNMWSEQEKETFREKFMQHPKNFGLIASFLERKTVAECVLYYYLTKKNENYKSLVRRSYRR
# HDAC1, sequence (Q13547 whole entry): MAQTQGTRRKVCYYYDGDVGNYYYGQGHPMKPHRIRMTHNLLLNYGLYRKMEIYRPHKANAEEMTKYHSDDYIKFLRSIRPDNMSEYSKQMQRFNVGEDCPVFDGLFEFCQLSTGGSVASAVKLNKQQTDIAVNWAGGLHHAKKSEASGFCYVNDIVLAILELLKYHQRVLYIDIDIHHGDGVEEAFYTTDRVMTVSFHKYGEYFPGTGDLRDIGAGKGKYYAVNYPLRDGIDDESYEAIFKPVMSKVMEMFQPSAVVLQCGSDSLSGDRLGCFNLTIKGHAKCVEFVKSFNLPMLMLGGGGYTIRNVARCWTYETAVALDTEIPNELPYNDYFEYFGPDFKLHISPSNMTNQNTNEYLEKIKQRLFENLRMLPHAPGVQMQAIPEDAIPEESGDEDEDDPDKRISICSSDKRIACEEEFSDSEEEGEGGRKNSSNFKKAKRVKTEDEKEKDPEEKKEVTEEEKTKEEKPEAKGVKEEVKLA
Ki (HDAC1) [nM],fluorogenic activity assay with added InsP6 [1],SMILES
~40,–,CCCNNC(=O)c1ccc(CNC(=O)/C=C/c2ccccc2)cc1 [compound 5]
–,Addition of InsP6 enhanced HDAC activity,O=P(O)(O)O[C@H]1[C@H](OP(=O)(O)O)[C@@H](OP(=O)(O)O)[C@H](OP(=O)(O)O)[C@@H](OP(=O)(O)O)[C@H]1OP(=O)(O)O [inositol hexaphosphate]
